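Growth conditions: 96-well plates. Treatment: test compound, 48 hours, 5 concentrations. Analysis: linear interpolation between bracketing concentrations; unreached endpoints set to highest concentration. The concentration for 50% growth inhibition is given as GI50.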 Active and inactive are the calls of the source. Rule as the data show it: active = GI50 up to about 1.1 µM and inactive = higher.
Assays:
Assay in all cases: growth of human tumour cells (NCI), 48 h
RPMI-8226 = tested on: RPMI-8226
NCI-H23 = tested on: NCI-H23
Malme-3M = tested on: Malme-3M
A498 = tested on: A498
NCI-H226 = tested on: NCI-H226
SR = tested on: SR
A549 = tested on: A549
MDA-MB-435 = tested on: MDA-MB-435
NCI/ADR-RES = tested on: NCI/ADR-RES
ACHN = tested on: ACHN
HOP-92 = tested on: HOP-92
CAKI-1 = tested on: CAKI-1
SF-268 = tested on: SF-268
OVCAR-8 = tested on: OVCAR-8
Hs-578T = tested on: Hs-578T
UACC-62 = tested on: UACC-62
SNB-75 = tested on: SNB-75
HL-60 = tested on: HL-60
SN12C = tested on: SN12C
LOX IMVI = tested on: LOX IMVI
PC-3 = tested on: PC-3
HT-29 = tested on: HT-29
OVCAR-3 = tested on: OVCAR-3
TK-10 = tested on: TK-10
786-0 = tested on: 786-0
M14 = tested on: M14
UACC-257 = tested on: UACC-257
RXF 393 = tested on: RXF 393
T47D = tested on: T47D
MCF7 = tested on: MCF7
SK-MEL-2 = tested on: SK-MEL-2
HOP-62 = tested on: HOP-62
EKVX = tested on: EKVX
HCC 2998 = tested on: HCC 2998
K562 = tested on: K562
SF-295 = tested on: SF-295
MDA-N = tested on: MDA-N
DU-145 = tested on: DU-145
SK-MEL-5 = tested on: SK-MEL-5
COLO 205 = tested on: COLO 205
NCI-H460 = tested on: NCI-H460
KM12 = tested on: KM12
MOLT-4 = tested on: MOLT-4
SF-539 = tested on: SF-539
SK-MEL-28 = tested on: SK-MEL-28
CCRF-CEM = tested on: CCRF-CEM
NCI-H522 = tested on: NCI-H522
IGROV-1 = tested on: IGROV-1
U-251 = tested on: U-251
UO-31 = tested on: UO-31
OVCAR-5 = tested on: OVCAR-5
SW-620 = tested on: SW-620
HCT-116 = tested on: HCT-116
OVCAR-4 = tested on: OVCAR-4
HCT-15 = tested on: HCT-15
BT-549 = tested on: BT-549
MDA-MB-231 = tested on: MDA-MB-231
SK-OV-3 = tested on: SK-OV-3
SNB-19 = tested on: SNB-19

Measured: GI50

COc1ccccc1N1C(=O)CSC1c1cc(OC)c(OC)c(OC)c1 (stereo not drawn)
50.6 µM: HCT-15
inactive: RPMI-8226 16.6 µM | NCI-H23 > 100 µM | Malme-3M > 22.3 µM | A498 > 100 µM | NCI-H226 > 50 µM | SR 10.7 µM | A549 > 100 µM | MDA-MB-435 14.7 µM | NCI/ADR-RES 69.8 µM | ACHN > 100 µM | HOP-92 50.9 µM | CAKI-1 > 35 µM | SF-268 > 46.1 µM | OVCAR-8 > 100 µM | Hs-578T > 59.7 µM | UACC-62 20.5 µM | SNB-75 > 100 µM | HL-60 20.5 µM | SN12C > 100 µM | LOX IMVI 35.6 µM | PC-3 > 78.2 µM | HT-29 > 100 µM | OVCAR-3 > 46.3 µM | TK-10 > 100 µM | 786-0 18.8 µM | M14 > 88.5 µM | UACC-257 > 84.7 µM | RXF 393 > 52.1 µM | T47D 12.4 µM | MCF7 16.3 µM | SK-MEL-2 55.7 µM | HOP-62 > 100 µM | EKVX > 100 µM | HCC 2998 > 100 µM | K562 24.9 µM | SF-295 > 30.4 µM | MDA-N 11.9 µM | DU-145 > 100 µM | SK-MEL-5 25.5 µM | COLO 205 > 100 µM | NCI-H460 > 100 µM | KM12 21.3 µM | MOLT-4 27.9 µM | SF-539 15.8 µM | SK-MEL-28 > 89.9 µM | CCRF-CEM 13.2 µM | NCI-H522 17.7 µM | IGROV-1 33 µM | U-251 31.1 µM | UO-31 > 76.7 µM | OVCAR-5 > 100 µM | SW-620 27.5 µM | HCT-116 13.3 µM | OVCAR-4 > 77.8 µM | BT-549 > 34 µM | MDA-MB-231 > 100 µM

CC(=O)OC1[C@@H](OC(C)=O)CN(OCc2ccccc2)C[C@H]1OC(C)=O (stereo partly drawn)
> 100 µM: HCT-15
inactive: RPMI-8226 > 100 µM | NCI-H23 > 100 µM | A498 > 100 µM | NCI-H226 > 100 µM | SR > 100 µM | A549 > 100 µM | MDA-MB-435 > 100 µM | NCI/ADR-RES > 100 µM | ACHN > 100 µM | HOP-92 > 100 µM | CAKI-1 > 100 µM | SF-268 > 100 µM | OVCAR-8 > 100 µM | Hs-578T > 100 µM | UACC-62 > 100 µM | SNB-75 > 100 µM | HL-60 > 100 µM | SN12C > 100 µM | SK-OV-3 33 µM | LOX IMVI > 100 µM | PC-3 > 100 µM | HT-29 > 100 µM | OVCAR-3 > 100 µM | TK-10 > 100 µM | 786-0 > 100 µM | M14 > 100 µM | UACC-257 > 100 µM | RXF 393 > 100 µM | T47D > 100 µM | MCF7 > 100 µM | SNB-19 > 100 µM | SK-MEL-2 > 100 µM | HOP-62 > 100 µM | EKVX > 100 µM | HCC 2998 > 100 µM | K562 > 100 µM | SF-295 > 100 µM | MDA-N > 100 µM | DU-145 > 100 µM | SK-MEL-5 > 100 µM | COLO 205 > 100 µM | NCI-H460 > 100 µM | KM12 > 100 µM | MOLT-4 > 100 µM | SF-539 > 100 µM | SK-MEL-28 > 100 µM | CCRF-CEM > 100 µM | NCI-H522 > 100 µM | IGROV-1 > 100 µM | U-251 > 100 µM | UO-31 > 100 µM | OVCAR-5 > 100 µM | SW-620 > 100 µM | HCT-116 > 100 µM | OVCAR-4 > 100 µM | BT-549 > 100 µM | MDA-MB-231 > 100 µM

Cc1cc(S(=O)(=O)NC(=C(C#N)C#N)[n+]2ccc(N(C)C)cc2)c([S-])cc1Cl
> 100 µM: HCT-15
inactive: RPMI-8226 > 100 µM | NCI-H23 > 100 µM | Malme-3M > 100 µM | A498 > 100 µM | NCI-H226 > 100 µM | SR > 100 µM | A549 > 100 µM | MDA-MB-435 > 100 µM | NCI/ADR-RES > 100 µM | ACHN > 100 µM | HOP-92 28.7 µM | CAKI-1 > 100 µM | SF-268 > 100 µM | OVCAR-8 > 100 µM | Hs-578T > 100 µM | UACC-62 > 100 µM | HL-60 > 100 µM | SN12C > 100 µM | SK-OV-3 > 100 µM | PC-3 > 100 µM | HT-29 > 100 µM | OVCAR-3 > 100 µM | TK-10 > 100 µM | 786-0 > 100 µM | M14 > 100 µM | UACC-257 > 100 µM | RXF 393 > 100 µM | T47D > 100 µM | MCF7 > 100 µM | SNB-19 > 100 µM | SK-MEL-2 > 100 µM | HOP-62 > 100 µM | EKVX > 100 µM | HCC 2998 > 100 µM | K562 > 100 µM | SF-295 > 100 µM | MDA-N > 100 µM | DU-145 > 100 µM | SK-MEL-5 > 100 µM | COLO 205 > 100 µM | NCI-H460 > 100 µM | KM12 > 100 µM | MOLT-4 > 100 µM | SF-539 > 100 µM | SK-MEL-28 > 100 µM | CCRF-CEM > 100 µM | NCI-H522 42.3 µM | IGROV-1 > 100 µM | U-251 > 100 µM | UO-31 > 100 µM | OVCAR-5 > 100 µM | HCT-116 > 100 µM | OVCAR-4 99.5 µM | BT-549 > 100 µM | MDA-MB-231 > 100 µM

COc1ccc2ccc3oc(=O)c(C)cc3c2c1
inactive: RPMI-8226 > 100 µM | NCI-H23 > 100 µM | Malme-3M > 100 µM | A498 > 100 µM | NCI-H226 > 100 µM | SR > 100 µM | A549 > 100 µM | MDA-MB-435 > 100 µM | NCI/ADR-RES > 100 µM | ACHN > 100 µM | HOP-92 > 10 µM | CAKI-1 > 100 µM | SF-268 > 100 µM | OVCAR-8 > 100 µM | Hs-578T 78 µM | UACC-62 10.9 µM | SNB-75 28.8 µM | HL-60 > 100 µM | SN12C > 100 µM | LOX IMVI > 100 µM | PC-3 > 100 µM | HT-29 > 100 µM | OVCAR-3 > 100 µM | TK-10 > 100 µM | 786-0 > 100 µM | M14 > 100 µM | UACC-257 > 100 µM | RXF 393 > 100 µM | T47D 43.3 µM | MCF7 > 100 µM | SNB-19 > 100 µM | SK-MEL-2 > 100 µM | HOP-62 > 100 µM | EKVX 8.32 µM | HCC 2998 39.6 µM | K562 > 100 µM | SF-295 > 100 µM | MDA-N > 100 µM | DU-145 > 100 µM | SK-MEL-5 > 100 µM | COLO 205 > 100 µM | NCI-H460 > 100 µM | KM12 > 100 µM | MOLT-4 > 100 µM | SF-539 > 100 µM | SK-MEL-28 > 100 µM | CCRF-CEM > 100 µM | NCI-H522 > 100 µM | IGROV-1 > 100 µM | U-251 > 100 µM | UO-31 25.2 µM | OVCAR-5 > 100 µM | SW-620 > 100 µM | HCT-116 > 100 µM | OVCAR-4 > 100 µM | BT-549 > 100 µM | MDA-MB-231 33.9 µM
